Test results taken from article PMC9631063, “Schisandrin B Attenuates Diabetic Cardiomyopathy by Targeting MyD88 and Inhibiting MyD88‐Dependent Inflammation” (Advanced Science, 2022).

Molecular target: T1, rhMyD88(TIR) (Homo sapiens, UniProt Q99836)
T1 construct: gene MYD88; Results text calls it only rhMyD88
Experiment: isothermal titration calorimetry (Nano-ITC)
Format: binding

T1 sequence (Q99836 159-296 limits assumed): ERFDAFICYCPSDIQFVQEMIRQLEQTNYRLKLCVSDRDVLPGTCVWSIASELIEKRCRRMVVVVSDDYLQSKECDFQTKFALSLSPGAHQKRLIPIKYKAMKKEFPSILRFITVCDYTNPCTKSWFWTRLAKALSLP

- Kd: 125 µM
Structure (SMILES): COc1cc2c(c(OC)c1OC)-c1c(cc3c(c1OC)OCO3)CC(C)C(C)C2 (stereo not shown) [Schisandrin B]
